Counter-ions that a name gives are not always drawn. Blank lines part the entries; values can stand above or below the compound they belong to.
Columns and labels:
[1] = molecular target: T1, Histone-lysine N-methyltransferase NSD2 (Homo sapiens, UniProt O96028); experiment: Inhibition of NSD2 (unknown origin)
T1 sequence (O96028 whole entry): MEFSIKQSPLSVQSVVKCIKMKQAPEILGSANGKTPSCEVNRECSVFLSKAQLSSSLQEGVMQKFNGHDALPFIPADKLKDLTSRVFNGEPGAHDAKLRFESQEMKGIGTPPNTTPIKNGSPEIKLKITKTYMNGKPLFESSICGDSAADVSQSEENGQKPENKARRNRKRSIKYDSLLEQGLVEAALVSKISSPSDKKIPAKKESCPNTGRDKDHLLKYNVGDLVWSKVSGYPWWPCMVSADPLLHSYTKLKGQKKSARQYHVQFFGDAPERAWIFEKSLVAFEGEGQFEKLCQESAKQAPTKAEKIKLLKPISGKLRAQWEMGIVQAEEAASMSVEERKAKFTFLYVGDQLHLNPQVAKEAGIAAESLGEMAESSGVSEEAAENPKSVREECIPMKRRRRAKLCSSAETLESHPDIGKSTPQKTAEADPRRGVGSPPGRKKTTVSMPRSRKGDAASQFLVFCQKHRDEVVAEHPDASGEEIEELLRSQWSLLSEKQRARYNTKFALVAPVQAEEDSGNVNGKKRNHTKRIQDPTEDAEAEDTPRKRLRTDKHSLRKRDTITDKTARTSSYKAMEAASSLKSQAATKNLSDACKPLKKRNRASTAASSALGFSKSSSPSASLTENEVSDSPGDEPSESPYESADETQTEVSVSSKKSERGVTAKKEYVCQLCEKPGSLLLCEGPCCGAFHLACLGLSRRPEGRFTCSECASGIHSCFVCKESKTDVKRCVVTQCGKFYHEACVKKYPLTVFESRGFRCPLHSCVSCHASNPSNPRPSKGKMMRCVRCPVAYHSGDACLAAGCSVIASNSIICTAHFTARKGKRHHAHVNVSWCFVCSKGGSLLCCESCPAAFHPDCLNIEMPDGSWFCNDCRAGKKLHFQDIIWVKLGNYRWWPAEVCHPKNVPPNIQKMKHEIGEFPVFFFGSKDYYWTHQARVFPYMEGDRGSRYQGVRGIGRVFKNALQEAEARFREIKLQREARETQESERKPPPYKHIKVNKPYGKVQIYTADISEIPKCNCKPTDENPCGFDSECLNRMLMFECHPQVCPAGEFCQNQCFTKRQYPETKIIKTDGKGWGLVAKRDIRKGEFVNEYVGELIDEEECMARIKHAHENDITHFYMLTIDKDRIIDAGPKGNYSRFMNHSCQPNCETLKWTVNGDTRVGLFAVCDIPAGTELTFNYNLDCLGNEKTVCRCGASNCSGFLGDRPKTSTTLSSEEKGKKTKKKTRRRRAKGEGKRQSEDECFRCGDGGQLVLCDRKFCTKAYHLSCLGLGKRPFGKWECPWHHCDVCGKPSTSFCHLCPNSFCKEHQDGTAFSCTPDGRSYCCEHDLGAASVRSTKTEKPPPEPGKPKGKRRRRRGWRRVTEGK

[2] = molecular target: T2, Histone-lysine N-methyltransferase NSD2 (Homo sapiens) (UniProt O96028); experiment: Inhibition of NSD2 (unknown origin) at 50 uM relative to control
T2 sequence (whole entry): T1 sequence (O96028 whole entry)

[3] = molecular target: T3, Histone-lysine N-methyltransferase, H3 lysine-36 specific (Homo sapiens, UniProt Q96L73); experiment: Inhibition of human recombinant NSD1 incubated for 2 hrs by AlphaLISA method
T3 sequence (Q96L73 whole entry): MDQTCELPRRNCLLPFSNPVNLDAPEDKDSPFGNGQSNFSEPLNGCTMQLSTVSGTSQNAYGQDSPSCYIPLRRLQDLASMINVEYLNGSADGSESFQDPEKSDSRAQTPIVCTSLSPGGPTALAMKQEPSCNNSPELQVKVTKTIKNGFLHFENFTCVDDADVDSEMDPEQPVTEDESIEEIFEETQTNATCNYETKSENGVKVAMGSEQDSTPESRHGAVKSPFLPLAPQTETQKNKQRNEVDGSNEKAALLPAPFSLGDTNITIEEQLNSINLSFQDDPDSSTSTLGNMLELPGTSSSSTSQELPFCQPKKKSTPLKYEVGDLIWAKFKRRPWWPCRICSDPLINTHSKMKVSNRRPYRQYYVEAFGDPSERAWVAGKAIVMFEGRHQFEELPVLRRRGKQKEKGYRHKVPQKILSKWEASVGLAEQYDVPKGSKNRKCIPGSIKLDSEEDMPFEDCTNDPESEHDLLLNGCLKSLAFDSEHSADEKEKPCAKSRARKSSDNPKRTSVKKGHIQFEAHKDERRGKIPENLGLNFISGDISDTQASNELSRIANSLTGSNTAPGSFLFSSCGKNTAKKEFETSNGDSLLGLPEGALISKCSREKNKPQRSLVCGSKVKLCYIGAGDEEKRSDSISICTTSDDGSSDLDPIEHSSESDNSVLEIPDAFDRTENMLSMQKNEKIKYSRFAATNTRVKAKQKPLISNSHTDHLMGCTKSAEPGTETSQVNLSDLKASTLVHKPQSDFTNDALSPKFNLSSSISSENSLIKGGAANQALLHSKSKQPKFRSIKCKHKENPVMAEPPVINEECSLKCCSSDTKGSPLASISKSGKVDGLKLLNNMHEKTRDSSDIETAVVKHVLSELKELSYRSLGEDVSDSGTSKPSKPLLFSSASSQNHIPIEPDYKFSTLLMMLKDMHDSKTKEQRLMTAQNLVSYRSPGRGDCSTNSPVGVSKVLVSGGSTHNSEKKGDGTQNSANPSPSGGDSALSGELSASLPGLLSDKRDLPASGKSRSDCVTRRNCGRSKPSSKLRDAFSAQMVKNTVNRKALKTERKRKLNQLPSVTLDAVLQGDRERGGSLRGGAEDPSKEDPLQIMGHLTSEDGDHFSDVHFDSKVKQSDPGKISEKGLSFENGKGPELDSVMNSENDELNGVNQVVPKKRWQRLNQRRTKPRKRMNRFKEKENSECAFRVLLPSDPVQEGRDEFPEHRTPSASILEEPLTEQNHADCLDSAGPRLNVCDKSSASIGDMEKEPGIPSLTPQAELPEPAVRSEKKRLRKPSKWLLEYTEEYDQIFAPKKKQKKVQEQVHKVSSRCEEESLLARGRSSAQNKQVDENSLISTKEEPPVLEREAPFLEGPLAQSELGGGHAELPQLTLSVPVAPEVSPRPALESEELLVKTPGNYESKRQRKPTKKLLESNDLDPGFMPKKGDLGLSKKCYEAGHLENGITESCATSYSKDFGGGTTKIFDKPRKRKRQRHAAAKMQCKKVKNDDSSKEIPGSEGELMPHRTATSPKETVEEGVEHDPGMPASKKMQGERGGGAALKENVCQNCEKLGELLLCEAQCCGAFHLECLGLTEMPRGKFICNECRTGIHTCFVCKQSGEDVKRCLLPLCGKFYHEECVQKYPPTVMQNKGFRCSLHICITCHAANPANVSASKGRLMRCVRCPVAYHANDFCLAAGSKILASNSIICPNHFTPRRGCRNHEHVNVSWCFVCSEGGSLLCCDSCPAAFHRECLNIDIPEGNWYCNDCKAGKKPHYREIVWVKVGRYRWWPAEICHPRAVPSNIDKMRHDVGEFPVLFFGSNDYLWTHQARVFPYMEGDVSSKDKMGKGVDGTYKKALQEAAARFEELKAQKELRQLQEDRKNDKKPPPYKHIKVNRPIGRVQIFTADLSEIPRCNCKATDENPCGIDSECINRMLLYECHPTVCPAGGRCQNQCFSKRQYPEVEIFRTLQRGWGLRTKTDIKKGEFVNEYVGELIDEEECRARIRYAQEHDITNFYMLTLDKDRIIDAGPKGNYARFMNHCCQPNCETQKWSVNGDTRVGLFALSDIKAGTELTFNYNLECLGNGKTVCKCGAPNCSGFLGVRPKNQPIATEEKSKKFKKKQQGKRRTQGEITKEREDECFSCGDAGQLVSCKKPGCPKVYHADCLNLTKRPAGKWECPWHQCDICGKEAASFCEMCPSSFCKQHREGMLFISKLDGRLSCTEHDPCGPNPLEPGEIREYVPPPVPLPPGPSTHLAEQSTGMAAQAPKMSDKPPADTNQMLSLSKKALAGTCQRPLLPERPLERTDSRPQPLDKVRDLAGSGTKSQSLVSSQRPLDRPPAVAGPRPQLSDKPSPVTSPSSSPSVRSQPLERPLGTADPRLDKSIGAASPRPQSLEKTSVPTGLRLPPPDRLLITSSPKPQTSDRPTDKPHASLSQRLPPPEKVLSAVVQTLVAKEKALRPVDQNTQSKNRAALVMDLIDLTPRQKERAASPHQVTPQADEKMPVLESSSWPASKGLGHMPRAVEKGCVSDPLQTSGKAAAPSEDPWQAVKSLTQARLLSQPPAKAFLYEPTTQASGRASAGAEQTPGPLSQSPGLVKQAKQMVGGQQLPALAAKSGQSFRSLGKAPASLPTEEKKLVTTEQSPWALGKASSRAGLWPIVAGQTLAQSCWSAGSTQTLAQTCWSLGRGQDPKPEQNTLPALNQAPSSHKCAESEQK

[4] = molecular target: T3, Histone-lysine N-methyltransferase, H3 lysine-36 specific; experiment: Binding affinity to NSD1 (unknown origin) assessed as dissociation constant by ITC assay
[5] = molecular target: T3, Histone-lysine N-methyltransferase, H3 lysine-36 specific; experiment: Inhibition of N-terminal hexa-histidine tagged NSD1 SET domain (1852 to 2105 residues) (unknown origin) expressed in Escherichia coli incubated for 2 hrs by ITC method
[6] = molecular target: T3, Histone-lysine N-methyltransferase, H3 lysine-36 specific; experiment: Inhibition of human recombinant NSD1 ([…] residues) expressed in Escherichia coli BL21 (DE3) incubated for 4 hrs by scintillation/filter assay
[7] = molecular target: T4, Histone-lysine N-methyltransferase NSD3 (Homo sapiens, UniProt Q9BZ95); experiment: Inhibition of human recombinant NSD3 ([…] residues) expressed in Escherichia coli BL21 (DE3) incubated for 4 hrs by scintillation/filter assay
T4 sequence (Q9BZ95 whole entry): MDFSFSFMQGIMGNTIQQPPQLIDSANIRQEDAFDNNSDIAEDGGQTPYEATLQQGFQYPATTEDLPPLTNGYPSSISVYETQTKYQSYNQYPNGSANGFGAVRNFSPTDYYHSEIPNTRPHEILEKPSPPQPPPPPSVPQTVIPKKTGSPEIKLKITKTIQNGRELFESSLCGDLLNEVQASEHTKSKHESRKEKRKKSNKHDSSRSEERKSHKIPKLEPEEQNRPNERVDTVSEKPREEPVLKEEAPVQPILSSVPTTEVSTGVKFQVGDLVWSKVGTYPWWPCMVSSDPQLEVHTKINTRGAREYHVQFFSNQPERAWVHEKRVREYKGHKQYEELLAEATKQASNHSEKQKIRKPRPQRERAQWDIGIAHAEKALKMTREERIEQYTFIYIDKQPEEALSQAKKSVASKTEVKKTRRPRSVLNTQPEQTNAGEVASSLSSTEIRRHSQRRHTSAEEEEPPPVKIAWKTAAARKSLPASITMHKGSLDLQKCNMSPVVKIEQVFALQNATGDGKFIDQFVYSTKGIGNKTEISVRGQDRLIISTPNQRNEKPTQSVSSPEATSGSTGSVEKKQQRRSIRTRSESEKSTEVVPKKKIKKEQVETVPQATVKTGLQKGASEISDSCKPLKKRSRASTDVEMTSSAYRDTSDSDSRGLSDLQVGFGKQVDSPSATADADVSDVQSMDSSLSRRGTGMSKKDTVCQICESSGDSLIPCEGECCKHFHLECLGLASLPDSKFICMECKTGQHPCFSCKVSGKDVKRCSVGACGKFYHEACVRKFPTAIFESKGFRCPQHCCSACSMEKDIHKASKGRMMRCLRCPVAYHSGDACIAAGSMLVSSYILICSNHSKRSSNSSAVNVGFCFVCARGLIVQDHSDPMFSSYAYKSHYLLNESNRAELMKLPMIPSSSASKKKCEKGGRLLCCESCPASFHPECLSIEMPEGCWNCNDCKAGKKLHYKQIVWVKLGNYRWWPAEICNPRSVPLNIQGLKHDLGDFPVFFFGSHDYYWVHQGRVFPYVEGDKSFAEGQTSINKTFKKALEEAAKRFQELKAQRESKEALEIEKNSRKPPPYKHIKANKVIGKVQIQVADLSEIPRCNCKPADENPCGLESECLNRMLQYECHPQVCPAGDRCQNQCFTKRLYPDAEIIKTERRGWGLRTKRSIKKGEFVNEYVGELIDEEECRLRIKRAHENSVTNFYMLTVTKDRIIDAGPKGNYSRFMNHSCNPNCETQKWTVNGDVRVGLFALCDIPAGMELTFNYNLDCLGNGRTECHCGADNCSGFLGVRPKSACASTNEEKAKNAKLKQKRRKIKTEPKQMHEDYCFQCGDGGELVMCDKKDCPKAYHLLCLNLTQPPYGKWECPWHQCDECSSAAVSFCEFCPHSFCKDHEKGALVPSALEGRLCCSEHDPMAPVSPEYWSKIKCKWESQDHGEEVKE

[8] = molecular target: T2, Histone-lysine N-methyltransferase NSD2 (Homo sapiens); experiment: Inhibition of NSD2 (unknown origin) at 10 uM relative to control
[9] = molecular target: Histone-lysine N-methyltransferase 2A (Homo sapiens) (UniProt Q03164); experiment: Inhibition of MLL1 (unknown origin) at 10 uM relative to control
PC-3 = experiment: Antiproliferative activity against human PC-3 cells assessed as cell growth inhibition incubated for 48 hrs by MTT assay; format: functional, cell-based; conditions: PC-3, 48 h
[10] = molecular target: Histone-lysine N-methyltransferase SETDB1 (Homo sapiens) (UniProt Q15047); experiment: Inhibition of SETDB1 (unknown origin) at 10 uM relative to control
[11] = molecular target: T2, Histone-lysine N-methyltransferase NSD2 (Homo sapiens); experiment: Induction of degradation of NSD2 in human U2OS cells assessed as maximum degradation relative to control; format: cell-based
[12] = molecular target: T1, Histone-lysine N-methyltransferase NSD2; experiment: Induction of degradation of NSD2 in human U2OS cells; format: cell-based
[13] = molecular target: T1, Histone-lysine N-methyltransferase NSD2; experiment: Binding affinity to NSD2 PWWP1 domain (unknown origin) assessed as dissociation constant by SPR assay

Structure (SMILES): Cn1nnc2cc(NC(=O)Nc3cccc([N+](=O)[O-])c3)ccc21
- IC50 [1]: 8.3 µM

Structure (SMILES): COc1ccc(-c2cc(Cn3cnc4c(N)ncnc43)c(N3CCC[C@](N)(COC4CCC4)C3)cn2)cc1F
- IC50 [3]: 270 nM

Structure (SMILES): CCN(CC)CCCC(C)Nc1ccnc2cc(Cl)ccc12 (stereo not given) [CHLOROQUINE PHOSPHATE]
- Kd [4]: 4.7 µM

Structure (SMILES): COc1cc2nc(N3CCCN(C)CC3)nc(NC3CCN(Cc4ccccc4)CC3)c2cc1OC
- IC50 [6]: 112 µM
- IC50 [7]: 95 µM

Structure (SMILES): N=C(N)NCCC[C@H](N)C(=O)NCCCCCCNC(=O)c1ccc(NC(=O)c2ccc(CN(C(=O)c3ccc4c(c3)OCC(=O)N4)C3CC3)cc2)cc1
- Emax [11]: 81%
- EC50 [12]: 1200 nM
- Kd [13]: 14 nM

Structure (SMILES): CCN(CC)CCCC(C)Nc1c2ccc(Cl)cc2nc2ccc(OC)cc12 (stereo not given) [QUINACRINE DIHYDROCHLORIDE]
- Kd [4]: 1.4 µM

Structure (SMILES): COC[C@@]1(N)CCCN(c2cnc(-c3cc(Cl)ccc3F)cc2Cn2cnc3c(N)ncnc32)C1
- IC50 [3]: 248 nM

Structure (SMILES): COC[C@@]1(N)CCCN(c2cnc(-c3ccc(F)cc3F)cc2Cn2cnc3c(N)ncnc32)C1
- IC50 [3]: 225 nM

Next, values leading:

- inhibition [2]: 96%
Structure (SMILES): O=C(Nc1cccc([N+](=O)[O-])c1)Nc1ccc2nnsc2c1

- IC50 [5]: < 20 µM
Structure (SMILES): N#CSc1cc(O)c2nc(N)sc2c1

- inhibition [2]: 99%
Structure (SMILES): CC(=O)c1ccc(-c2cc(NC(=O)Nc3ccc4nnsc4c3)cc(C(F)(F)F)c2)s1

- inhibition [2]: 92%
Structure (SMILES): N#Cc1cccc(NC(=O)Nc2ccc3nnsc3c2)c1

- inhibition [8]: 97%
- inhibition [2]: 95%
- inhibition [9]: 79%
- IC50 (PC-3): < 10 µM
- inhibition [10]: 85%
Structure (SMILES): COC(=O)c1cc(NC(=O)Nc2ccc3nnsc3c2)cc(C(=O)OC)c1
